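Each compound was tested at five concentrations against cells in 96-well plates for 48 hours. Here, GI50 denotes the concentration required for 50% inhibition of growth.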 Activity calls are given as the source filed them. Rule as the data show it: active = GI50 up to about 1.1 µM and inactive = higher.
Assays:
Test in all cases: DTP human tumour cell line panel, 48 h
[1] = test system: SK-MEL-28
[2] = test system: MDA-N
[3] = test system: OVCAR-5
[4] = test system: DU-145
[5] = test system: OVCAR-8
[6] = test system: HT-29
[7] = test system: HCC 2998
[8] = test system: BT-549
[9] = test system: SF-295
[10] = test system: CAKI-1
[11] = test system: HL-60
[12] = test system: TK-10
[13] = test system: COLO 205
[14] = test system: OVCAR-3
[15] = test system: SNB-75
[16] = test system: NCI-H226
[17] = test system: Malme-3M
[18] = test system: LOX IMVI
[19] = test system: K562
[20] = test system: SF-539

| SMILES | GI50 [1] | GI50 [2] | GI50 [3] | GI50 [4] | GI50 [5] | GI50 [6] | GI50 [7] | GI50 [8] | GI50 [9] | GI50 [10] | GI50 [11] | GI50 [12] | GI50 [13] | GI50 [14] | GI50 [15] | GI50 [16] | GI50 [17] | GI50 [18] | GI50 [19] | GI50 [20] |
| --- | --- | --- | --- | --- | --- | --- | --- | --- | --- | --- | --- | --- | --- | --- | --- | --- | --- | --- | --- | --- |
| COc1ccc2c(c1)CC[C@@H]1[C@@H]2CC[C@]2(C)[C@@H](O)/C(=C/c3ccncc3)C[C@@H]12 | 15.3 µM (inactive) | 12.4 µM (inactive) | 12.5 µM (inactive) | 18 µM (inactive) | 14.4 µM (inactive) | 3.99 µM (inactive) | 8.59 µM (inactive) | 15.7 µM (inactive) | 10.5 µM (inactive) | 14.8 µM (inactive) | 7.98 µM (inactive) | 18.9 µM (inactive) | 3.94 µM (inactive) | 18.5 µM (inactive) | 10.4 µM (inactive) | 20.1 µM (inactive) | 12.3 µM (inactive) | – | – | – |
| c1cc(CSP234N5CCN2CCN3CCN4CC5)ccc1CSP123N4CCN1CCN2CCN3CC4 | > 100 µM (inactive) | > 100 µM (inactive) | > 100 µM (inactive) | > 100 µM (inactive) | > 100 µM (inactive) | 53.2 µM (inactive) | > 100 µM (inactive) | > 100 µM (inactive) | > 100 µM (inactive) | > 100 µM (inactive) | 0.465 µM (active) | > 100 µM (inactive) | > 100 µM (inactive) | 76.4 µM (inactive) | > 100 µM (inactive) | – | – | 49.1 µM (inactive) | < 0.01 µM (active) | 64.6 µM (inactive) |
| C=C1C[C@@H]2CC[C@@]34CC5O[C@H]6C(O[C@H]7CC[C@H](CC(=O)O[C@@H]8[C@@H](C)[C@@H]9O[C@@H]%10C[C@]%11(C[C@@H]%12O[C@]%13(C[C@H](C)[C@@H]%14O[C@@H]%15CC(C(O)CO)O[C@@H]%15C[C@@H]%14O%13)C[C@H](C)[C@@H]%12O%11)O[C@@H]%10C[C@@H]9O[C@H]8CC8O[C@@H](CC[C@@H]1O2)C[C@@H](C)C8(O)CO)O[C@@H]7[C@@H]6O3)[C@H]5O4 (stereo not given in full) | > 0.959 µM (active) | 0.288 µM (active) | > 1 µM (active) | > 0.916 µM (active) | > 1 µM (active) | – | > 1 µM (active) | 0.00891 µM (active) | > 0.796 µM (active) | > 1 µM (active) | > 1 µM (active) | > 0.45 µM (active) | > 0.65 µM (active) | 0.594 µM (active) | 0.294 µM (active) | 0.986 µM (active) | 0.394 µM (active) | 0.48 µM (active) | > 0.933 µM (active) | – |
| N#Cc1c2ccc([N+](=O)[O-])cc2c(=O)n2c1sc1ccccc12 | 17.6 µM (inactive) | 80.2 µM (inactive) | – | 35.5 µM (inactive) | 35.2 µM (inactive) | 33.7 µM (inactive) | 8.05 µM (inactive) | 19.9 µM (inactive) | – | 24.4 µM (inactive) | 19.3 µM (inactive) | 16 µM (inactive) | 6.87 µM (inactive) | – | 42.2 µM (inactive) | 17 µM (inactive) | – | 25.2 µM (inactive) | 11.1 µM (inactive) | – |
| Cc1cc(S(=O)(=O)Nc2nnc3ccccn23)c(S)cc1Cl | > 100 µM (inactive) | > 100 µM (inactive) | > 100 µM (inactive) | > 100 µM (inactive) | > 100 µM (inactive) | > 100 µM (inactive) | > 100 µM (inactive) | > 100 µM (inactive) | 25.9 µM (inactive) | – | > 100 µM (inactive) | > 100 µM (inactive) | > 100 µM (inactive) | > 100 µM (inactive) | – | – | > 100 µM (inactive) | > 100 µM (inactive) | > 100 µM (inactive) | > 100 µM (inactive) |
| CO/C(=N\N=C(/C)C(F)(F)F)c1ccncc1 | > 100 µM (inactive) | > 100 µM (inactive) | > 100 µM (inactive) | > 100 µM (inactive) | > 100 µM (inactive) | > 100 µM (inactive) | – | > 100 µM (inactive) | – | > 100 µM (inactive) | > 100 µM (inactive) | – | > 100 µM (inactive) | > 100 µM (inactive) | > 100 µM (inactive) | > 100 µM (inactive) | > 100 µM (inactive) | – | > 100 µM (inactive) | – |
| CCOC(=O)C1(C/C=C\CBr)CCCCCCC1=O (stereo not given) | > 100 µM (inactive) | > 100 µM (inactive) | > 100 µM (inactive) | > 100 µM (inactive) | > 100 µM (inactive) | > 100 µM (inactive) | – | > 100 µM (inactive) | > 100 µM (inactive) | > 100 µM (inactive) | > 100 µM (inactive) | 91 µM (inactive) | > 100 µM (inactive) | – | > 100 µM (inactive) | > 100 µM (inactive) | > 100 µM (inactive) | > 100 µM (inactive) | – | > 100 µM (inactive) |
| CSc1nc(C)c2c(n1)SCC2 | > 10 µM (inactive) | > 10 µM (inactive) | > 10 µM (inactive) | > 10 µM (inactive) | > 10 µM (inactive) | > 10 µM (inactive) | – | > 10 µM (inactive) | > 10 µM (inactive) | > 10 µM (inactive) | > 10 µM (inactive) | > 10 µM (inactive) | > 10 µM (inactive) | > 10 µM (inactive) | > 10 µM (inactive) | > 10 µM (inactive) | > 10 µM (inactive) | > 10 µM (inactive) | > 10 µM (inactive) | > 10 µM (inactive) |
| O=C1/C(=C2/CCCN2)C(c2ccc[nH]2)=NN1c1ccccc1 | > 100 µM (inactive) | > 100 µM (inactive) | > 100 µM (inactive) | > 100 µM (inactive) | > 100 µM (inactive) | > 100 µM (inactive) | – | > 100 µM (inactive) | > 100 µM (inactive) | > 100 µM (inactive) | > 100 µM (inactive) | > 100 µM (inactive) | > 100 µM (inactive) | > 100 µM (inactive) | > 100 µM (inactive) | > 100 µM (inactive) | > 100 µM (inactive) | > 100 µM (inactive) | > 100 µM (inactive) | > 100 µM (inactive) |
| O=C(Sc1c(-c2ccccc2)c(=O)n(-c2ccccc2)c(=S)n1-c1ccccc1)c1ccccc1 | > 100 µM (inactive) | 84.5 µM (inactive) | > 100 µM (inactive) | > 100 µM (inactive) | 99.3 µM (inactive) | 57.9 µM (inactive) | – | 56.1 µM (inactive) | 47.4 µM (inactive) | > 100 µM (inactive) | 33.2 µM (inactive) | > 100 µM (inactive) | > 100 µM (inactive) | > 100 µM (inactive) | 12.3 µM (inactive) | > 100 µM (inactive) | > 100 µM (inactive) | 26.4 µM (inactive) | 29 µM (inactive) | – |
| CN(C)c1nc2nonc2nc1Nc1ccccc1 | > 100 µM (inactive) | > 100 µM (inactive) | > 100 µM (inactive) | > 100 µM (inactive) | > 100 µM (inactive) | > 100 µM (inactive) | > 100 µM (inactive) | > 100 µM (inactive) | > 100 µM (inactive) | – | > 100 µM (inactive) | > 100 µM (inactive) | > 100 µM (inactive) | – | > 100 µM (inactive) | > 100 µM (inactive) | > 100 µM (inactive) | > 100 µM (inactive) | > 100 µM (inactive) | – |
| CCOC(=O)c1ccc2c(=O)n3c(C(=O)OCC)ccc3c(=O)n12 | > 100 µM (inactive) | > 100 µM (inactive) | > 100 µM (inactive) | > 100 µM (inactive) | > 100 µM (inactive) | > 100 µM (inactive) | > 100 µM (inactive) | > 100 µM (inactive) | > 100 µM (inactive) | > 100 µM (inactive) | > 100 µM (inactive) | > 100 µM (inactive) | > 100 µM (inactive) | > 100 µM (inactive) | 44.5 µM (inactive) | > 100 µM (inactive) | > 100 µM (inactive) | > 100 µM (inactive) | > 100 µM (inactive) | – |
| O=C1OC(c2ccccc2)=N/C1=C\c1ccc([N+](=O)[O-])cc1 | > 100 µM (inactive) | > 100 µM (inactive) | > 100 µM (inactive) | 47.4 µM (inactive) | 11.9 µM (inactive) | > 100 µM (inactive) | > 100 µM (inactive) | 15.3 µM (inactive) | 32.7 µM (inactive) | 30.7 µM (inactive) | 24.4 µM (inactive) | 28.8 µM (inactive) | > 100 µM (inactive) | 57.4 µM (inactive) | 22.9 µM (inactive) | 3.96 µM (inactive) | – | 26.4 µM (inactive) | > 100 µM (inactive) | 9.16 µM (inactive) |
| COc1cc(C2SCC(=O)N2c2cc(Cl)c(Cl)cc2Cl)cc(OC)c1OC (stereo not given) | 84.5 µM (inactive) | 25.3 µM (inactive) | > 100 µM (inactive) | 41.3 µM (inactive) | 66.5 µM (inactive) | 76.7 µM (inactive) | 32.1 µM (inactive) | 25.4 µM (inactive) | 49.8 µM (inactive) | 28.7 µM (inactive) | 28.2 µM (inactive) | > 100 µM (inactive) | 39.5 µM (inactive) | 22.2 µM (inactive) | – | 63.1 µM (inactive) | – | 33.7 µM (inactive) | 42 µM (inactive) | 43.1 µM (inactive) |
| NC(=O)C1CCCN1C(=O)C(Cc1c[nH]cn1)NC(=O)C1CCCC1 (stereo not given) | > 100 µM (inactive) | > 100 µM (inactive) | > 100 µM (inactive) | > 100 µM (inactive) | > 100 µM (inactive) | > 100 µM (inactive) | > 100 µM (inactive) | > 100 µM (inactive) | > 100 µM (inactive) | > 100 µM (inactive) | > 100 µM (inactive) | > 100 µM (inactive) | > 100 µM (inactive) | > 100 µM (inactive) | > 100 µM (inactive) | > 100 µM (inactive) | > 100 µM (inactive) | > 100 µM (inactive) | > 100 µM (inactive) | – |
